One assay concerns Aspergillus fumigatus. The assay is described as follows: Antifungal activity against Aspergillus fumigatus GIMCC 3.19 assessed as inhibition of growth incubated for 24 hrs by two-fold serial dilution method. The format is functional.
The next assay relates to Aspergillus flavus. Kind of assay: Antifungal activity against Aspergillus flavus ATCC 16870 assessed as inhibition of growth incubated for 24 hrs by two-fold serial dilution method. The format is functional.
For another assay, the system named is Cryptococcus neoformans. Kind of assay: Antifungal activity against Cryptococcus neoformans ATCC 32719 assessed as inhibition of growth incubated for 24 hrs by two-fold serial dilution method. The format is functional.
The test system of the next assay is Candida tropicalis. The assay is described as follows: Inhibition of chitin synthase extracted from Candida tropicalis ATCC 750 using UDP-GlcNAc as substrate assessed as inhibition rate at 300 ug/ml by TMB based microplate analyzer relative to control. The conditions noted are these: dose 300.0 µg/ml.
The test system of the next assay is Candida albicans. Kind of assay: Antifungal activity against Candida albicans ATCC 76615 assessed as inhibition of growth incubated for 24 hrs by two-fold serial dilution method. Format: functional.
Assay [1] in a line: Inhibition of chitin synthase extracted from Candida tropicalis ATCC 750 using UDP-GlcNAc as substrate assessed as inhibition rate by TMB based microplate analyzer relative to control.

Values after ≈ are worked out from the molar mass of the structure shown.

Consider `CC(C)NC(=O)/C=C/C(=O)Nc1ccc2c(c1)NC(=O)C1(CCNC1=O)C2` (racemic), for which the MIC (in general, the least concentration at which growth counts as inhibited) was found to be 64 µg/mL (≈ 173 µM) in the assay on Aspergillus fumigatus, 256 µg/mL (≈ 691 µM) with Aspergillus flavus, 128 µg/mL (≈ 346 µM) with Cryptococcus neoformans and 128 µg/mL (≈ 346 µM) with Candida albicans. The inhibition (as a rule, the change of the read-out against control, counted positive when it falls) in the assay with Candida tropicalis worked out at 34.6%.
With `O=C(/C=C/C(=O)Nc1ccc2c(c1)NC(=O)C1(CCNC1=O)C2)Nc1ccccc1` (racemic), the MIC turned out to be 32 µg/mL (≈ 79.1 µM) with Aspergillus fumigatus, 64 µg/mL (≈ 158 µM) with Aspergillus flavus, 128 µg/mL (≈ 316 µM) in the assay with Cryptococcus neoformans and 64 µg/mL (≈ 158 µM) in the assay on Candida albicans. Moreover, in the assay with Candida tropicalis, the inhibition was 39.6%.
As to `O=C(/C=C/C(=O)Nc1ccc2c(c1)NC(=O)C1(CCNC1=O)C2)Nc1ccc(F)c(Cl)c1` (racemic), the MIC with Aspergillus fumigatus worked out at 128 µg/mL (≈ 280 µM); in the assay on Aspergillus flavus it was 64 µg/mL (≈ 140 µM); in the assay with Cryptococcus neoformans it was 32 µg/mL (≈ 70 µM); with Candida albicans, 32 µg/mL (≈ 70 µM). Further, in the assay with Candida tropicalis, the inhibition came to 48.7%.
As for `CCCN(CCC)C(=O)/C=C/C(=O)Nc1ccc2c(c1)NC(=O)C1(CCNC1=O)C2` (racemic), the minimal inhibitory concentration (MIC) in the assay on Aspergillus fumigatus came out at 256 µg/mL (≈ 621 µM); with Aspergillus flavus, 128 µg/mL (≈ 310 µM); with Cryptococcus neoformans, 128 µg/mL (≈ 310 µM); in the assay with Candida albicans it was 128 µg/mL (≈ 310 µM). Moreover, in the assay with Candida tropicalis, the inhibition was determined as 26.3%.
Take `O=C(/C=C/C(=O)Nc1ccc2c(c1)NC(=O)C1(CCNC1=O)C2)NCc1ccccc1` (racemic): the MIC in the assay with Aspergillus fumigatus turned out to be 64 µg/mL (≈ 153 µM); in the assay with Aspergillus flavus, 16 µg/mL (≈ 38.2 µM); in the assay on Cryptococcus neoformans, 16 µg/mL (≈ 38.2 µM); in the assay on Candida albicans, 32 µg/mL (≈ 76.5 µM). In addition, the inhibition in the assay on Candida tropicalis is 49.5%.
With `COc1ccc(NC(=O)/C=C/C(=O)Nc2ccc3c(c2)NC(=O)C2(CCNC2=O)C3)cc1` (racemic), the MIC in the assay on Aspergillus fumigatus is 64 µg/mL (≈ 147 µM); with Aspergillus flavus, 32 µg/mL (≈ 73.7 µM); with Cryptococcus neoformans, 32 µg/mL (≈ 73.7 µM); with Candida albicans, 64 µg/mL (≈ 147 µM). Also, in the assay on Candida tropicalis, the inhibition is 49.3%.
Consider `O=C(/C=C/C(=O)Nc1ccc2c(c1)NC(=O)C1(CCNC1=O)C2)Nc1ccc(F)cc1` (racemic), for which the MIC in the assay with Aspergillus fumigatus is 64 µg/mL (≈ 152 µM); in the assay on Aspergillus flavus, 32 µg/mL (≈ 75.8 µM); with Cryptococcus neoformans, 32 µg/mL (≈ 75.8 µM); in the assay with Candida albicans it was 128 µg/mL (≈ 303 µM). The inhibition with Candida tropicalis was determined as 46.8%.
Consider `CCCCNC(=O)/C=C/C(=O)Nc1ccc2c(c1)NC(=O)C1(CCNC1=O)C2` (racemic), for which the MIC stood at 256 µg/mL (≈ 666 µM) with Aspergillus fumigatus, 64 µg/mL (≈ 166 µM) in the assay with Aspergillus flavus, 128 µg/mL (≈ 333 µM) in the assay with Cryptococcus neoformans and 128 µg/mL (≈ 333 µM) with Candida albicans. The inhibition in the assay with Candida tropicalis is 35.7%.
For the molecule `O=C(/C=C/C(=O)Nc1ccc2c(c1)NC(=O)C1(CCNC1=O)C2)Nc1ccc(Cl)cc1` (racemic), the MIC in the assay on Aspergillus fumigatus amounted to 32 µg/mL (≈ 72.9 µM); in the assay with Aspergillus flavus, 32 µg/mL (≈ 72.9 µM); in the assay with Cryptococcus neoformans, 64 µg/mL (≈ 146 µM); in the assay with Candida albicans, 32 µg/mL (≈ 72.9 µM). The inhibition in the assay with Candida tropicalis is 56.3%. Further, the IC50 (usually the concentration needed to halve the response being measured) in assay [1] turned out to be 496 µM.
As for `CCCCCNC(=O)/C=C/C(=O)Nc1ccc2c(c1)NC(=O)C1(CCNC1=O)C2` (racemic), the MIC came out at 128 µg/mL (≈ 321 µM) in the assay with Aspergillus fumigatus, 128 µg/mL (≈ 321 µM) in the assay with Aspergillus flavus, 256 µg/mL (≈ 642 µM) in the assay with Cryptococcus neoformans and 256 µg/mL (≈ 642 µM) in the assay with Candida albicans. Further, the inhibition with Candida tropicalis stood at 37.9%.
For the molecule `O=C(CN1CCC(C(=O)Nc2nccs2)CC1)Nc1ccc2c(c1)NC(=O)C1(CCNC1=O)C2` (racemic), the MIC with Aspergillus fumigatus is 256 µg/mL (≈ 530 µM); with Aspergillus flavus, 32 µg/mL (≈ 66.3 µM); with Cryptococcus neoformans it was 512 µg/mL (≈ 1060 µM); in the assay on Candida albicans it was 8 µg/mL (≈ 16.6 µM). In the assay on Candida tropicalis, the inhibition was 73.9%. For the same molecule, the IC50 in assay [1] was found to be 157 µM.
`O=C(CN1CCC(C(=O)Nc2ccc(Cl)cc2)CC1)Nc1ccc2c(c1)NC(=O)C1(CCNC1=O)C2` (racemic): the MIC came to 16 µg/mL (≈ 31.4 µM) with Aspergillus fumigatus, 16 µg/mL (≈ 31.4 µM) in the assay with Aspergillus flavus, 32 µg/mL (≈ 62.7 µM) in the assay on Cryptococcus neoformans and 64 µg/mL (≈ 125 µM) with Candida albicans. Also, in the assay with Candida tropicalis, the inhibition was determined as 41.3%. Moreover, the IC50 in assay [1] was determined as 166 µM.
On to `COc1ccc(NC(=O)C2CCN(CC(=O)Nc3ccc4c(c3)NC(=O)C3(CCNC3=O)C4)CC2)cc1` (racemic), for which the MIC in the assay with Aspergillus fumigatus is 64 µg/mL (≈ 127 µM); in the assay on Aspergillus flavus it was 32 µg/mL (≈ 63.3 µM); with Cryptococcus neoformans, 64 µg/mL (≈ 127 µM); with Candida albicans it was 128 µg/mL (≈ 253 µM). In the assay with Candida tropicalis, the inhibition was 75.9%.
With `O=C(CN1CCC(C(=O)Nc2ccccc2)CC1)Nc1ccc2c(c1)NC(=O)C1(CCNC1=O)C2` (racemic), the MIC came out at 128 µg/mL (≈ 269 µM) in the assay on Aspergillus fumigatus, 32 µg/mL (≈ 67.3 µM) in the assay with Aspergillus flavus, 64 µg/mL (≈ 135 µM) with Cryptococcus neoformans and 64 µg/mL (≈ 135 µM) in the assay on Candida albicans. The inhibition in the assay on Candida tropicalis is 35.8%.
